Assay results published in patent US7101878B1 (Agouron Pharmaceuticals, Inc., priority 1998, dated 2006).
Read-outs that look alike come from different tables or passages of the source.

Key:
human GnRH receptor = molecular target: T1, human GnRH receptor (Homo sapiens, UniProt P30968); test: Radioligand binding, 125I-GnRH-A displacement, membranes of HEK 293 cells with human GnRH receptor
T1 construct: expressed in transfected cells; host or cells: HEK 293 (hGnRH-R/293, from Dr. Stuart Sealfon)
T1 sequence (P30968 1-328): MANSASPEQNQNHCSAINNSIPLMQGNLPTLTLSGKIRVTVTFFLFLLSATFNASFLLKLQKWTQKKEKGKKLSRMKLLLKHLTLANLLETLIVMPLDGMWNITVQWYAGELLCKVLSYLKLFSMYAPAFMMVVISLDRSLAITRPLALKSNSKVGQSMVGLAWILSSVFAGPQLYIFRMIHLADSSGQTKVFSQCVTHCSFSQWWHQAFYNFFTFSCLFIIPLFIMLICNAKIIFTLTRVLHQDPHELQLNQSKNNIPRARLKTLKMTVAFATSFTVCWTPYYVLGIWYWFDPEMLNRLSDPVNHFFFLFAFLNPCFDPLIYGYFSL
Summary of the method: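 Bound tracer was separated by filtration through polyethyleneimine-soaked GF/C filters and counted by liquid scintillation. IC50 from curve fitting; other species were tested under the same conditions.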

mouse GnRH receptor = molecular target: T2, mouse GnRH receptor (Mus musculus, UniProt Q01776); test: Radioligand binding, 125I-GnRH-A, 293 cells expressing mouse GnRH receptors; settings: read-out: mGnRH IC50
T2 construct: expressed in transfected cells; host or cells: 293 cells
T2 sequence (Q01776 1-327): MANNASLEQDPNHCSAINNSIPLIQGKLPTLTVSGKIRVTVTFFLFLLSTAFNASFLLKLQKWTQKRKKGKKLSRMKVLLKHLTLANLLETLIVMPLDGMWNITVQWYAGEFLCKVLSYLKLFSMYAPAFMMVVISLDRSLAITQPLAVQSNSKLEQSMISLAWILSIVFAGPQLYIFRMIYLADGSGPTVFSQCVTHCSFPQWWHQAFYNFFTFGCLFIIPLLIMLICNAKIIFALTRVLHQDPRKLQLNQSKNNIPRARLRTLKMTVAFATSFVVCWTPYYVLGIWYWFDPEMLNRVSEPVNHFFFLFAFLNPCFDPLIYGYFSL
Summary of the method: (§1)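 Bound label captured on 0.1% polyethyleneimine-treated GF/C filters, washed three times with PBS, counted. IC50 derived; identical set-up for every species.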

[1] = Pharmacokinetic studies / bioavailability in rats; format: in vivo, rat; settings: rat male
[2] = Metabolism rate, pmol/min/mg at 1 μM, human; format: in vitro ADME; settings: 1 μM compound
5-HT7 = 5-HT7 (Homo sapiens, UniProt P34969); test: Selectivity: 5-HT7
Chain of 5-HT7 (P34969 whole entry, species assumed): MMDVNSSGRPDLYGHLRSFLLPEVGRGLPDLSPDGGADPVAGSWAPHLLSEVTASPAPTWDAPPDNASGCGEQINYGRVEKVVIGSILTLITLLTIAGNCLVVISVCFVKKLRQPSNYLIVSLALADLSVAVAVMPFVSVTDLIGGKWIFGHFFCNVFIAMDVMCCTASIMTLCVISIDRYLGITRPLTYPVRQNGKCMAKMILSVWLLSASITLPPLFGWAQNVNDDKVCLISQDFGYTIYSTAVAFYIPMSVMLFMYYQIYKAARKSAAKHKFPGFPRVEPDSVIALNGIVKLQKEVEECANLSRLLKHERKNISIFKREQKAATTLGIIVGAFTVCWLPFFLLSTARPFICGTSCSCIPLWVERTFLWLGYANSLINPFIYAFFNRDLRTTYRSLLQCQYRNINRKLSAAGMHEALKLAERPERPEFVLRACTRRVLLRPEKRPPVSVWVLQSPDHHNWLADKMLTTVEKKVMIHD

NPY Y1 = molecular target: T3, NPY Y1 (Homo sapiens, UniProt P25929); test: Selectivity: NPY Y1
T3 sequence (P25929 1-384): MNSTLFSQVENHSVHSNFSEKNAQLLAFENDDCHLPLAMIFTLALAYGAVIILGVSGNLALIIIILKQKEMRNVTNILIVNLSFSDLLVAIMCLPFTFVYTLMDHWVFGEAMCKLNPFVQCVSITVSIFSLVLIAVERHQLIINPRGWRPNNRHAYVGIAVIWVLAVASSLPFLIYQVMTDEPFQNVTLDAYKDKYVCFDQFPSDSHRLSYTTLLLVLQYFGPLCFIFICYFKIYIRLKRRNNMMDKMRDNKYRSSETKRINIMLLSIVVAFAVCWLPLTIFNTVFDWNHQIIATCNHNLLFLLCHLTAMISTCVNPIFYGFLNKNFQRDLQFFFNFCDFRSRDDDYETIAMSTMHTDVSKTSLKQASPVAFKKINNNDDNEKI

D2 Dopamine = D2 Dopamine (Homo sapiens, UniProt P14416); test: Selectivity: D2 Dopamine
Chain of D2 Dopamine (P14416 whole entry): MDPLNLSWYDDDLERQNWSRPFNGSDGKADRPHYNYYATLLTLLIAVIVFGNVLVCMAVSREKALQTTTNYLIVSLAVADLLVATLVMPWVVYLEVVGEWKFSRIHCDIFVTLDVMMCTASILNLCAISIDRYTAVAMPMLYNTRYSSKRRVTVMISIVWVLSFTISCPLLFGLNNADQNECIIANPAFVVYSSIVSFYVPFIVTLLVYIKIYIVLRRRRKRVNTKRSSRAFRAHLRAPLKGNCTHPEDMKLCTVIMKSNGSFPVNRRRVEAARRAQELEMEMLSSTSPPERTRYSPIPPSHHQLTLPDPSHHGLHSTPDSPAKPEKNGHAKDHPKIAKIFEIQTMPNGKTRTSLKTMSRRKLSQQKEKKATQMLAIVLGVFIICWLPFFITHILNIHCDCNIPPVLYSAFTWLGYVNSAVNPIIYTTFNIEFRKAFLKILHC

rat GnRH receptor = molecular target: T4, rat GnRH receptor (Rattus norvegicus, UniProt P30969); test: Radioligand binding, 125I-GnRH-A, rat pituitary membranes; set-up: membranes were prepared from rat pituitary; from tissue; host or cells: rat pituitary; settings: read-out: rGnRH IC50
T4 sequence (P30969 1-327): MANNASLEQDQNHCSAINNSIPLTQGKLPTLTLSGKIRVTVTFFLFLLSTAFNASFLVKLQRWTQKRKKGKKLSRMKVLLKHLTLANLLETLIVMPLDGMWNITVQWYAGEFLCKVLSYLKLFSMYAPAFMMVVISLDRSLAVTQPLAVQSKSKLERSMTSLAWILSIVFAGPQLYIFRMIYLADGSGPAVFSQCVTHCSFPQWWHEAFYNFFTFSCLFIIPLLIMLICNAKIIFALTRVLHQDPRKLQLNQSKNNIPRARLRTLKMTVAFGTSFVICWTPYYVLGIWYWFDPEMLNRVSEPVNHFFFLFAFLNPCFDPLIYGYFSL
Summary of the method: as §1

[3] = male, rat, plasma, po, 20 mg/kg, p.o. 20 mg/kg, vehicle per footnote (DMSO/cremophor/saline)

IC50 (human GnRH receptor; read-out: hGnRH IC50): 50 nM | IC50 (human GnRH receptor; second value marked * (mostly in parentheses), asterisk not explained, read-out: hGnRH IC50, value marked *): 40 nM | IC50 (mouse GnRH receptor): 10 nM | half-life ([1]; male, rat, plasma, iv, 10 mg/kg): 1.1 h | Cmax [1, 3]: 330 nM | Tmax [1, 3]: 1.5 h | Fp.o. ([1]; p.o. 20 mg/kg, vehicle per footnote (DMSO/cremophor/saline)): 4% (20 mg/kg)^1 | Human pmol/min/mg 1 μM [2]: 289 pmol/min/mg | Ki (5-HT7): > 4400 nM | IC50 (NPY Y1): > 10000 nM | Ki (D2 Dopamine): > 3200 nM | IC50 (rat GnRH receptor): 6 nM
SMILES: Cc1cc2c(cc1Cc1ccc(C(=O)NCc3nc4ccccc4[nH]3)o1)C(C)(C)CCC2(C)C [Compound 48]
